From patent US20020098248A1, “Method for treating and/or preventing infections caused by methicillin-resistant Staphylococcus aureus” (priority 2000, published 2002) come the findings set out here.

The assay relates to Staphylococcus, particularly MRSA. In words: Examination of catechin for antimicrobial effect. It counts as cell-based. As to conditions: catechin only, even if it has a high concentration.

For the substance catechin, the “antimicrobial effect against Staphylococcus, particularly MRSA” value is listed as “does not provide a desired antimicrobial effect”.
